Source: ChEMBL document CHEMBL1201862, “PubChem BioAssay data set” (2004)
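Method: 48-hour compound exposure of cells in 96-well plates, five concentrations, linear interpolation of endpoints. At the GI50, growth is halved.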 Calls of active or inactive are those of the source. Cut-off read from the data, not from the text of the source: active = GI50 up to about 1.1 µM and inactive = higher.

Columns and labels:
Assay in all cases: inhibition of tumour cell growth, NCI panel, 48 h
[1] = test system: HT-29
[2] = test system: PC-3
[3] = test system: NCI-H23
[4] = test system: CCRF-CEM
[5] = test system: OVCAR-8
[6] = test system: SK-MEL-2
[7] = test system: RXF 393
[8] = test system: M14
[9] = test system: HL-60
[10] = test system: SF-295
[11] = test system: UO-31
[12] = test system: MDA-MB-231
[13] = test system: COLO 205
[14] = test system: EKVX
[15] = test system: HCT-15
[16] = test system: UACC-62
[17] = test system: SK-MEL-28
[18] = test system: OVCAR-3
[19] = test system: NCI-H226
[20] = test system: T47D

| Compound | GI50 [1] | GI50 [2] | GI50 [3] | GI50 [4] | GI50 [5] | GI50 [6] | GI50 [7] | GI50 [8] | GI50 [9] | GI50 [10] | GI50 [11] | GI50 [12] | GI50 [13] | GI50 [14] | GI50 [15] [µM] | GI50 [16] | GI50 [17] | GI50 [18] | GI50 [19] | GI50 [20] |
| --- | --- | --- | --- | --- | --- | --- | --- | --- | --- | --- | --- | --- | --- | --- | --- | --- | --- | --- | --- | --- |
| COc1ccc(/C=C2\CCC(CN3CCOCC3)C2=O)cc1 (configuration not stated) | 2.44 µM (inactive) | 3.15 µM (inactive) | 5.94 µM (inactive) | 1.38 µM (inactive) | 2.74 µM (inactive) | 3.78 µM (inactive) | 0.942 µM (active) | 2.16 µM (inactive) | 0.762 µM (active) | 17.2 µM (inactive) | 8.45 µM (inactive) | 2.08 µM (inactive) | 2.17 µM (inactive) | 7.57 µM (inactive) | 2.39 | 11.8 µM (inactive) | 3.06 µM (inactive) | 3.28 µM (inactive) | 18.9 µM (inactive) |  |
| O=C(Cn1c(=O)oc2ccccc21)N(c1ccccc1)c1ccccc1 | > 100 µM (inactive) | > 100 µM (inactive) | > 100 µM (inactive) | > 100 µM (inactive) | 52.8 µM (inactive) | > 100 µM (inactive) | > 100 µM (inactive) | > 100 µM (inactive) | > 100 µM (inactive) | > 100 µM (inactive) | > 100 µM (inactive) | > 100 µM (inactive) | > 100 µM (inactive) | 11.9 µM (inactive) | > 100 | > 100 µM (inactive) | > 100 µM (inactive) | > 100 µM (inactive) | 15.2 µM (inactive) |  |
| CC(C)CCc1n[nH]c(=O)n1/N=C\c1ccccc1 | > 100 µM (inactive) |  | > 100 µM (inactive) | > 100 µM (inactive) | > 100 µM (inactive) | 93.1 µM (inactive) | > 100 µM (inactive) | > 100 µM (inactive) |  | > 100 µM (inactive) | 26.4 µM (inactive) | > 100 µM (inactive) | > 100 µM (inactive) | > 100 µM (inactive) | > 100 | > 100 µM (inactive) | > 100 µM (inactive) | > 100 µM (inactive) | > 100 µM (inactive) | > 100 µM (inactive) |
| COc1ccc2cc(NC(=O)Nn3cnnc3)ccc2c1 | > 100 µM (inactive) | > 100 µM (inactive) | > 100 µM (inactive) | > 100 µM (inactive) | > 100 µM (inactive) | > 100 µM (inactive) |  | > 100 µM (inactive) | > 100 µM (inactive) | > 100 µM (inactive) | > 100 µM (inactive) | > 100 µM (inactive) | > 100 µM (inactive) | 80.7 µM (inactive) | > 100 | > 100 µM (inactive) | > 100 µM (inactive) | > 100 µM (inactive) | > 100 µM (inactive) | > 100 µM (inactive) |
| O=C1/C(=C\c2cccc(Oc3ccccc3)c2)SC(c2ccccc2)N1c1ccccc1 (configuration not stated) | 26.4 µM (inactive) |  | 92.5 µM (inactive) | 22 µM (inactive) | 42.2 µM (inactive) | > 100 µM (inactive) | 69.5 µM (inactive) | 71.6 µM (inactive) | 46.8 µM (inactive) | > 100 µM (inactive) | > 100 µM (inactive) | > 100 µM (inactive) | > 100 µM (inactive) | 57 µM (inactive) | 77.3 | 43.3 µM (inactive) | 81.1 µM (inactive) | 95.7 µM (inactive) | > 100 µM (inactive) | 52.5 µM (inactive) |
| COc1ccc(CN(Cc2ccc(OC)cc2)C(=O)CC2(O)CCc3ccccc3C2)cc1 (configuration not stated) | 37.4 µM (inactive) | 17.2 µM (inactive) | > 100 µM (inactive) | 16.6 µM (inactive) | 37 µM (inactive) | 60 µM (inactive) |  | 66.1 µM (inactive) | 17.8 µM (inactive) | 27.1 µM (inactive) | 15.1 µM (inactive) | > 100 µM (inactive) | 21.8 µM (inactive) | 37.5 µM (inactive) | 54.6 | 50.9 µM (inactive) | > 100 µM (inactive) | > 100 µM (inactive) | 15.1 µM (inactive) | 8.71 µM (inactive) |
| Cc1cccc(CNNC(=O)c2cc[n+]([BH2-]C#N)cc2)c1 | 29.3 µM (inactive) | 31.6 µM (inactive) | 18.6 µM (inactive) | 23.9 µM (inactive) | 24.6 µM (inactive) | 34.9 µM (inactive) | 22.4 µM (inactive) | 37.9 µM (inactive) | 22.5 µM (inactive) | 36.1 µM (inactive) | 48.1 µM (inactive) | 20.6 µM (inactive) | 16.5 µM (inactive) | 36.4 µM (inactive) | 21.4 | 62.7 µM (inactive) | 6.67 µM (inactive) | 32.1 µM (inactive) | 23.9 µM (inactive) |  |
